14 compounds from patent US12655148B2, “FXR small-molecule agonist, and preparation method therefor and use thereof” (Shanghai Institute of Materia Medica, Chinese Academy of …, priority 2020, dated 2026) can be followed below.

SMILES strings stand for the structures. Like-named read-outs stand apart in the source and are kept apart here. Where only a bound is given, the exact number is not on record here.

Test [1] addresses T1, recombinant GST-FXR fusion protein (Homo sapiens, UniProt Q96RI1).
T1 sequence (Q96RI1 1-486): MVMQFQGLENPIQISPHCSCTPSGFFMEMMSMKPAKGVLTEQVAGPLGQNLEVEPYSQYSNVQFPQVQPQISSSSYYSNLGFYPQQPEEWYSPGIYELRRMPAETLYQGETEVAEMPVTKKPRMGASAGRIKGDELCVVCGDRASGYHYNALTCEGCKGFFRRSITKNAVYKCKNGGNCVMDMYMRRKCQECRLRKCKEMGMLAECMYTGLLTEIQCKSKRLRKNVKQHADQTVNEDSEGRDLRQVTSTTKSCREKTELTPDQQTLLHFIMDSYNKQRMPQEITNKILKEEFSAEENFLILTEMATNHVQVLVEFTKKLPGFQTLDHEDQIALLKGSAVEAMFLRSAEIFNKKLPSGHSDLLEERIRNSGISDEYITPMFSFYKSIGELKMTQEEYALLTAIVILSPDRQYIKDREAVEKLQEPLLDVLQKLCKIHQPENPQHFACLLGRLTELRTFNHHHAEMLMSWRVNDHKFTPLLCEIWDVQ
Kind of test: FXR activity at the molecular level (AlphaScreen). The class given is biochemical. How it is done:
Test Method for FXR Activity at the Molecular Level
FXR activity was determined using recombinant GST-FXR fusion protein by AlphaScreen detection reagent from PerkinElmer. The reaction in this method was carried out in a 384-well plate, and the total reaction volume was 15 μL. A mixture of protein, agonist, co-regulatory factor, AlphaScreen® acceptor beads and AlphaScreen® donor beads was reacted in a buffer containing Tris-HCl 50 mM (pH7.4), 50 mM NaCl, BSA 0.1%, and 1 mM DTT. The FXR activity was reflected by the fluorescence signal intensity at 570 nm wavelength detected by the Envision fluorescence detector.

The target of another test is T2, FXR receptor (Homo sapiens, UniProt Q96RI1).
T2 construct: expressed in transfected cells; host or cells: 293T cells
T2 sequence (Q96RI1 1-486): T1 sequence (Q96RI1 1-486)
Nature of the test: FXR activity at the cellular level (FXRE luciferase reporter in 293T cells). The class given is cell-based. How it is done:
The cells were cultured for 24 hours to ensure plasmid expression. Then the FXR receptor agonists to be tested were added and incubated for 18 hours. The fluorescence intensity was detected using a luciferase kit (steady-Glo Luciferase Assay system) to reflect the compound's activation efficiency on the FXR receptor.

Setting [2] is: AlphaScreen, GST-FXR, read-out: FXR activity at the molecular level EC50.
Where [3] appears, read: 293T cells, luciferase reporter.
The mark [4] stands for this setting: 293T cells, luciferase reporter, read-out: FXR activity at the celluar level EC50.

On to `O=c1[nH]c(-c2ccc(N3[C@@H]4CC[C@H]3C[C@@H](OCc3c(-c5c(Cl)cccc5Cl)noc3C3CC3)C4)cc2)no1` [Example 1], for which the EC50 in test [1] (setting [2]) is less than 0.01 µM; on FXR receptor (setting [4]), 0.001 to 0.01 µM. Moreover, the “difference of activity on FXR at molecular level, endo-compound vs exo-compound” value in test [1] (endo- versus exo-compound) was “more than 100 times”. At FXR receptor (setting [3]), the “FXR activity at the celluar level Activity relative to OCA (%) 10 μM” value amounted to 88%.

Regarding `Cc1ccccc1-c1noc(C2CC2)c1CO[C@H]1C[C@H]2CC[C@@H](C1)N2c1ccc(-c2noc(=O)[nH]2)cn1` [Example 12], the EC50 was in the range of 0.01 to 0.1 µM in test [1] (setting [2]) and 0.001 to 0.01 µM at FXR receptor (setting [4]). In addition, on FXR receptor (setting [3]), the “FXR activity at the celluar level Activity relative to OCA (%) 10 μM” value stood at 105%.

As for `Cc1ccccc1-c1noc(C2CC2)c1CO[C@H]1C[C@H]2CC[C@@H](C1)N2c1ccc(-c2noc(=O)[nH]2)c(F)c1` [Example 14], the EC50 in test [1] (setting [2]) is 0.01 to 0.1 µM; on FXR receptor (setting [4]) it was 0.0001 to 0.001 µM. For the same compound, the “FXR activity at the celluar level Activity relative to OCA (%) 10 μM” value at FXR receptor (setting [3]) came out at 106%.

`O=c1[nH]c(-c2ccc(N3[C@@H]4CC[C@H]3C[C@@H](OCc3c(-c5ccccc5OC(F)F)noc3C3CC3)C4)nc2)no1` [Example 11]: the EC50 was in the range of 0.01 to 0.1 µM in test [1] (setting [2]) and 0.001 to 0.01 µM at FXR receptor (setting [4]). Also, the “FXR activity at the celluar level Activity relative to OCA (%) 10 μM” value at FXR receptor (setting [3]) is listed as 108%.

As to `O=c1[nH]c(-c2ccc(N3[C@@H]4CC[C@H]3C[C@@H](OCc3c(-c5ccccc5OC(F)(F)F)noc3C3CC3)C4)nc2)no1` [Example 6], the figures for the EC50 (in test [1] (setting [2]); at FXR receptor (setting [4])) were 0.01 to 0.1 µM and 0.0001 to 0.001 µM, respectively. Further, the “FXR activity at the celluar level Activity relative to OCA (%) 10 μM” value at FXR receptor (setting [3]) is listed as 122%.

Regarding `O=c1[nH]c(-c2ccc(N3[C@@H]4CC[C@H]3C[C@@H](OCc3c(-c5ccccc5C(F)(F)F)noc3C3CC3)C4)cc2F)no1` [Example 9], the values for the EC50 (in test [1] (setting [2]); on FXR receptor (setting [4])) were 0.01 to 0.1 µM and 0.0001 to 0.001 µM, respectively. Besides, at FXR receptor (setting [3]), the “FXR activity at the celluar level Activity relative to OCA (%) 10 μM” value came to 102%.

For the compound `O=c1[nH]c(-c2ccc(N3[C@@H]4CC[C@H]3C[C@H](OCc3c(-c5c(Cl)cccc5Cl)noc3C3CC3)C4)cc2)no1` [Example 2], the EC50 is greater than 1 µM in test [1] (setting [2]) and greater than 0.1 µM on FXR receptor (setting [4]). Further, the “FXR activity at the celluar level Activity relative to OCA (%) 10 μM” value at FXR receptor (setting [3]) was determined as 73%.

Regarding `O=c1[nH]c(-c2ccc(N3[C@@H]4CC[C@H]3C[C@@H](OCc3c(-c5ccccc5OC(F)(F)F)noc3C3CC3)C4)cc2F)no1` [Example 10], the EC50 in test [1] (setting [2]) is 0.01 to 0.1 µM; on FXR receptor (setting [4]), 0.0001 to 0.001 µM. For the same compound, the “FXR activity at the celluar level Activity relative to OCA (%) 10 μM” value on FXR receptor (setting [3]) is on record as 102%.

Consider `O=c1[nH]c(-c2ccc(N3[C@@H]4CC[C@H]3C[C@@H](OCc3c(-c5ccccc5C(F)(F)F)noc3C3CC3)C4)nc2)no1` [Example 5], for which the EC50 in test [1] (setting [2]) lay within 0.01 to 0.1 µM; at FXR receptor (setting [4]), 0.0001 to 0.001 µM. The “FXR activity at the celluar level Activity relative to OCA (%) 10 μM” value on FXR receptor (setting [3]) stood at 141%.

With `O=c1[nH]c(-c2ccc(N3[C@@H]4CC[C@H]3C[C@@H](OCc3c(-c5ccccc5OC(F)F)noc3C3CC3)C4)cc2F)no1` [Example 13], the EC50 in test [1] (setting [2]) fell in the range of 0.01 to 0.1 µM; at FXR receptor (setting [4]) it was 0.0001 to 0.001 µM. For the same compound, the “FXR activity at the celluar level Activity relative to OCA (%) 10 μM” value on FXR receptor (setting [3]) was 108%.

For the compound `O=c1[nH]c(-c2ccc(N3[C@@H]4CC[C@H]3C[C@@H](OCc3c(-c5c(Cl)cccc5Cl)noc3C3CC3)C4)nc2)no1` [Example 4], the EC50 in test [1] (setting [2]) is less than 0.01 µM; on FXR receptor (setting [4]) it was less than 0.0001 µM. Moreover, the “FXR activity at the celluar level Activity relative to OCA (%) 10 μM” value at FXR receptor (setting [3]) was 103%.

As to `O=c1[nH]c(-c2ccc(N3[C@@H]4CC[C@H]3C[C@@H](OCc3c(-c5c(F)cccc5F)noc3C3CC3)C4)nc2)no1` [Example 3], the values for the EC50 (in test [1] (setting [2]); on FXR receptor (setting [4])) were 0.01 to 0.1 µM and 0.0001 to 0.001 µM, respectively. The “FXR activity at the celluar level Activity relative to OCA (%) 10 μM” value at FXR receptor (setting [3]) is 116%.

`O=c1[nH]c(-c2ccc(N3[C@@H]4CC[C@H]3C[C@@H](OCc3c(-c5c(F)cccc5F)noc3C3CC3)C4)cc2F)no1` [Example 7]: the EC50 in test [1] lay in the range of 0.01 to 0.1 µM; on FXR receptor, 0.0001 to 0.001 µM. For the same compound, the “FXR activity at the celluar level Activity relative to OCA (%) 10 μM” value at FXR receptor (setting [3]) amounted to 117%.

Turning to `O=c1[nH]c(-c2ccc(N3[C@@H]4CC[C@H]3C[C@@H](OCc3c(-c5c(Cl)cccc5Cl)noc3C3CC3)C4)cc2F)no1` [Example 8], the EC50 in test [1] (setting [2]) was less than 0.01 µM; on FXR receptor, less than 0.0001 µM. At FXR receptor (setting [3]), the “FXR activity at the celluar level Activity relative to OCA (%) 10 μM” value turned out to be 102%.
